Laboratory results taken from PubChem BioAssay (NCI).
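Where inhibition never reached the appropriate level, the endpoint shown equals the highest concentration tested. Otherwise, values were interpolated linearly from a five-concentration, 48-hour dose response in 96-well plates. At the GI50, growth is halved. TGI denotes the concentration required for complete inhibition of growth.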

Columns and labels:
Experiment in all cases: DTP human tumour cell line panel, 48 h
786-0 renal = tested on: 786-0 renal
DMS 114 small cell lung = tested on: DMS 114 small cell lung
HOP-92 NSCLC = tested on: HOP-92 NSCLC
KM20L2 colon = tested on: KM20L2 colon
LOX IMVI melanoma = tested on: LOX IMVI melanoma
NCI-H23 lung = tested on: NCI-H23 lung
OVCAR-4 ovarian = tested on: OVCAR-4 ovarian
OVCAR-8 ovarian = tested on: OVCAR-8 ovarian
SK-MEL-2 melanoma = tested on: SK-MEL-2 melanoma

Compound	TGI (786-0 renal) [µM]	TGI (DMS 114 small cell lung) [µM]	TGI (HOP-92 NSCLC) [µM]	TGI (KM20L2 colon) [µM]	TGI (LOX IMVI melanoma) [µM]	TGI (NCI-H23 lung) [µM]	TGI (OVCAR-4 ovarian) [µM]	TGI (OVCAR-8 ovarian) [µM]	TGI (SK-MEL-2 melanoma) [µM]	GI50 (OVCAR-4 ovarian) [nM]
Brc1nc2c3ccccc3ncn2c1Br	> 100	98.4	76.5	> 100	77.4	56.1	42.7	> 100	82.6	
COCC1N=C(c2ccc(OC)c(OCc3ccccc3)c2OC)O[C@H]1c1ccccc1 (stereo partly drawn)	96.1	44.9	42.4	41.1	29.6	> 100	> 100	> 100	53.3	
CN(C)CCN1N=Nc2cccc3cccc1c23	> 100	> 100	> 100	> 100	> 100	> 100	> 100	> 100	> 100	
CC1=C2C(=CC(C)(CO)C2O)C(=O)C(C)(O)C12CC2 (stereo not drawn)	0.014	0.00769	0.0144	0.0137	0.00992	0.00996	0.0131	0.0127	0.00422	3.78
COC1=C(OC)C(=O)c2cc(SC)c(=O)c(SC)cc2C1=O	35.2	13.4	48.4	> 100	16.6	20.2	24.8	50.9	15.5	
CCCOP1(=O)C=C(C)C(Cl)=C(C)C1 (stereo not drawn)	36.7	46.3	48.6	88.8	36.1	37	86.7	> 100	32.2	
O=NN(CCCl)C(=O)NCc1ccc[n+]([O-])c1	> 100	> 100	> 100	> 100	> 100	> 100	> 100	> 100	> 100	
Cc1ccc(C)c(NC(=O)CC2C(=O)Nc3ccccc3S2(=O)=O)c1 (stereo not drawn)	56.5	> 100	> 100	> 100	> 100	> 100	38.7	> 100	> 100	
